From patent publication US20240018161A1, “MODULATORS OF CYSTIC FIBROSIS TRANSMEMBRANE CONDUCTANCE REGULATOR” (VERTEX PHARMACEUTICALS INCORPORATED, priority 2020, published 2024) come the findings set out here.

Molecules are shown by their SMILES.

The assay concerns the target CFTR-mediated chloride transport in human intestinal epithelial enteroid cells (Homo sapiens, UniProt P13569). Description: Membrane potential dye, Enteroid Assay A. To be noted: Enteroid Assay A; for EC50: read-out: Ent. A EC50. The format is cell-based. In outline:
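Membrane potential dye (20 μM methyl oxonol, with 30 μM CaCCinh-A01 and 30 μM Chicago Sky Blue) loaded 25 min at room temperature into ROCK-inhibitor-seeded human enteroid cells. Chloride-free stimulation buffer triggered transport, followed by 15 min fluorescence. % Activity relative to 3 μM/3 μM/300 nM triple-combination control.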

CFTR-mediated chloride transport in human intestinal epithelial enteroid cells, sequence (P13569 with tags, fused parts or gaps DEL508-508): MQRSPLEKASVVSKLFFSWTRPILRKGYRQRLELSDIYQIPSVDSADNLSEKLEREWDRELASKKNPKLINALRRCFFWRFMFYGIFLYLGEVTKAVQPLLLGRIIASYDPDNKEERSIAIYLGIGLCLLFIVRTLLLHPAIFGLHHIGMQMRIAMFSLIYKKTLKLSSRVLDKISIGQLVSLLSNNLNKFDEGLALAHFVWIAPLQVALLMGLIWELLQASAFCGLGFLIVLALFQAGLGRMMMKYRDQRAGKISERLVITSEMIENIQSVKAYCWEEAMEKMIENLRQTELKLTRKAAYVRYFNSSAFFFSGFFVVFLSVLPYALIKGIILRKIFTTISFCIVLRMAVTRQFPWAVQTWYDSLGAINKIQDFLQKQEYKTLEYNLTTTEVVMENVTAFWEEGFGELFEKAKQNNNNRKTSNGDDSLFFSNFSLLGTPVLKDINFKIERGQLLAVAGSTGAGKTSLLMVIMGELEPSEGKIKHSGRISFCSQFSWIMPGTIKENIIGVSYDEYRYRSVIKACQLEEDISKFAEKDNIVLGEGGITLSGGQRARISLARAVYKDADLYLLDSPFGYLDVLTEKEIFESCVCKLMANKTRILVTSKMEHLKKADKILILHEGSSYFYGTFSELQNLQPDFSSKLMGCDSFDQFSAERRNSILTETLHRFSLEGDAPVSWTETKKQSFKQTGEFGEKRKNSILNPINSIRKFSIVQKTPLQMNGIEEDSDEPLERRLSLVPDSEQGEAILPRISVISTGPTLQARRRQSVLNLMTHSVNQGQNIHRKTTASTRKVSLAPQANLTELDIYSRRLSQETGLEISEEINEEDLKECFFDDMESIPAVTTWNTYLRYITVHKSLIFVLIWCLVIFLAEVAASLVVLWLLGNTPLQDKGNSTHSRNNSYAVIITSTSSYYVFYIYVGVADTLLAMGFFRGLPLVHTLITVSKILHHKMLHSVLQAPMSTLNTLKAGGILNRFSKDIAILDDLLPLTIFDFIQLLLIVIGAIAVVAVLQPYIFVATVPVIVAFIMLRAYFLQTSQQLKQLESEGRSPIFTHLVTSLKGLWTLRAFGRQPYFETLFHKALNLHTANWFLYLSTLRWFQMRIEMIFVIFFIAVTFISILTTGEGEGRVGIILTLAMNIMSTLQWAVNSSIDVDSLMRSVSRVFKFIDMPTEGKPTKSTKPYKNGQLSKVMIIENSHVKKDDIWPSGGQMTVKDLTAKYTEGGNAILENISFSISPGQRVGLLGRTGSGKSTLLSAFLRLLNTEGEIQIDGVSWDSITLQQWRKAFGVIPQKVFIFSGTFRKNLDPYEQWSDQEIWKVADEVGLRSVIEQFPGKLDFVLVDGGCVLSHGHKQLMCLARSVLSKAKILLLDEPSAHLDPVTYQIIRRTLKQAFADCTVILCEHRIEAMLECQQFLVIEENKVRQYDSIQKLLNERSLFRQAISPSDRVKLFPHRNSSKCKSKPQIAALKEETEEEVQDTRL

Broadly, the EC50 is the concentration needed to bring the measured effect to its halfway point. On to `Cc1cccc(C)c1-c1cc2nc(n1)NS(=O)(=O)c1cccc(c1)C(=O)N1C[C@@H](CN(C)C[C@@H]1CC(C)C)O2` [Compound 99, (16R,20S)-12-(2,6-Dimethylphenyl)-18-methyl-20-(2-methylpropyl)-15-oxa-8λ^6-thia-1,9,11,18,22-pentaazatetracyclo[14.4.1.13,7.110,14]tricosa-3(23),4,6,10(22),11,13-hexaene-2,8,8-trione], for which the “Ent. A Max Activity (%)” value is “++ (++ is 30-60%)” and the half-maximal effective concentration (EC50) is less than 1000 nM.
The like results for `Cc1cccc(C)c1-c1cc2nc(n1)NS(=O)(=O)c1cccc(c1)C(=O)N1C[C@@H](CNC[C@H]1CC(C)C)O2` [Compound 101, (16R,20R)-12-(2,6-Dimethylphenyl)-20-(2-methylpropyl)-15-oxa-8λ^6-thia-1,9,11,18,22-pentaazatetracyclo[14.4.1.13,7.110,14]tricosa-3(23),4,6,10,12,14(22)-hexaene-2,8,8-trione] were, in that order, “++ (++ is 30-60%)” and less than 1000 nM.
With `Cc1cccc(C)c1-c1cc2nc(n1)NS(=O)(=O)c1cccc(c1)C(=O)N1C[C@@H](CN(C)C[C@H]1CC(C)C)O2` [Compound 103, (16R,20R)-12-(2,6-Dimethylphenyl)-18-methyl-20-(2-methylpropyl)-15-oxa-8λ^6-thia-1,9,11,18,22-pentaazatetracyclo[14.4.1.13,7.110,14]tricosa-3(23),4,6,10(22),11,13-hexaene-2,8,8-trione], the “Ent. A Max Activity (%)” value is recorded as “+++ (+++ is >600%)” and the concentration giving a half-maximal response (EC50) is less than 1000 nM.
The like results for `Cc1cccc(C)c1-c1cc2nc(n1)NS(=O)(=O)c1cccc(c1)C(=O)N1C[C@@H](CN(CC(C)(C)C)C[C@H]1CC(C)C)O2` [Compound 104, (16R,20R)-12-(2,6-Dimethylphenyl)-18-(2,2-dimethylpropyl)-20-(2-methylpropyl)-15-oxa-8λ^6-thia-1,9,11,18,22-pentaazatetracyclo[14.4.1.13,7.110,14]tricosa-3(23),4,6,10,12,14(22)-hexaene-2,8,8-trione] were, in that order, “+++ (+++ is >600%)” and less than 1000 nM.
As to `Cc1cccc(C)c1-c1cc2nc(n1)NS(=O)(=O)c1cccc(c1)C(=O)N1C[C@H](CC(C)C)NC[C@H](C1)O2` [Compound 108, (16R,19S)-12-(2,6-Dimethylphenyl)-19-(2-methylpropyl)-15-oxa-8λ^6-thia-1,9,11,18,22-pentaazatetracyclo[14.4.1.13,7.110,14]tricosa-3(23),4,6,10(22),11,13-hexaene-2,8,8-trione], the “Ent. A Max Activity (%)” value is “+++ (+++ is >600%)” and the EC50 was less than 1000 nM.
With `Cc1cccc(C)c1-c1cc2nc(n1)NS(=O)(=O)c1cccc(c1)C(=O)N1C[C@@H](CN(C3CCC(F)(F)CC3)[C@@H](CC(C)C)C1)O2` [Compound 110, (16R,19S)-18-(4,4-Difluorocyclohexyl)-12-(2,6-dimethylphenyl)-19-(2-methylpropyl)-15-oxa-8λ^6-thia-1,9,11,18,22-pentaazatetracyclo[14.4.1.13,7.110,14]tricosa-3(23),4,6,10(22),11,13-hexaene-2,8,8-trione], the “Ent. A Max Activity (%)” value was “+++ (+++ is >600%)” and the concentration giving a half-maximal response (EC50) was less than 1000 nM.
The like results for `Cc1cccc(C)c1-c1cc2nc(n1)NS(=O)(=O)c1cccc(c1)C(=O)N1CCN(C(=O)OC(C)(C)C)[C@@H](CC(C)C)[C@H](C1)O2` [Compound 117, tert-Butyl (16S,17S)-12-(2,6-dimethylphenyl)-17-(2-methylpropyl)-2,8,8-trioxo-15-oxa-8λ^6-thia-1,9,11,18,22-pentaazatetracyclo[14.4.1.13,7.110,14]tricosa-3(23),4,6,10(22),11,13-hexaene-18-carboxylate] were, in that order, “+++ (+++ is >600%)” and less than 1000 nM.
The like results for `Cc1cccc(C)c1-c1cc2nc(n1)NS(=O)(=O)c1cccc(c1)C(=O)N1C[C@@H](CNC[C@H]1C(C)C)O2` [Compound 123, (16R,20R)-12-(2,6-Dimethylphenyl)-20-(propan-2-yl)-15-oxa-8λ^6-thia-1,9,11,18,22-pentaazatetracyclo[14.4.1.13,7.110,14]tricosa-3(23),4,6,10(22),11,13-hexaene-2,8,8-trione] were, in that order, “++ (++ is 30-60%)” and 1000 to 3000 nM.
`Cc1cccc(C)c1-c1cc2nc(n1)NS(=O)(=O)c1cccc(c1)C(=O)N1C[C@@H](CN(C)C[C@H]1C(C)C)O2` [Compound 125, (16R,20R)-12-(2,6-Dimethylphenyl)-18-methyl-20-(propan-2-yl)-15-oxa-8λ^6-thia-1,9,11,18,22-pentaazatetracyclo[14.4.1.13,7.110,14]tricosa-3(23),4,6,10(22),11,13-hexaene-2,8,8-trione]: the “Ent. A Max Activity (%)” value was “+++ (+++ is >600%)” and the EC50 is less than 1000 nM.
The corresponding values for `Cc1cccc(C)c1-c1cc2nc(n1)NS(=O)(=O)c1cccc(c1)C(=O)N1C[C@@H](CN(C3CCC(F)(F)CC3)C[C@H]1C(C)C)O2` [Compound 126, (16R,20R)-18-(4,4-Difluorocyclohexyl)-12-(2,6-dimethylphenyl)-20-(propan-2-yl)-15-oxa-8λ^6-thia-1,9,11,18,22-pentaazatetracyclo[14.4.1.13,7.110,14]tricosa-3(23),4,6,10(22),11,13-hexaene-2,8,8-trione] are “+++ (+++ is >600%)” and less than 1000 nM.
With `Cc1cccc(C)c1-c1cc2nc(n1)NS(=O)(=O)c1cccc(c1)C(=O)N1C[C@@H](CN(C3CC4(CCCC4)C3)C[C@H]1C(C)C)O2` [Compound 127, (16R,20R)-12-(2,6-dimethylphenyl)-20-(propan-2-yl)-18-{spiro[3.4]octan-2-yl}-15-oxa-8λ^6-thia-1,9,11,18,22-pentaazatetracyclo[14.4.1.13,7.110,14]tricosa-3(23),4,6,10(22),11,13-hexaene-2,8,8-trione], the “Ent. A Max Activity (%)” value is “++ (++ is 30-60%)” and the concentration giving a half-maximal response (EC50) is less than 1000 nM.
The like results for `Cc1cccc(C)c1-c1cc2nc(n1)NS(=O)(=O)c1cccc(c1)C(=O)N1C[C@@H](CN(C3CC4(CCCCC4)C3)C[C@H]1C(C)C)O2` [Compound 128, (16R,20R)-12-(2,6-dimethylphenyl)-20-(propan-2-yl)-18-{spiro[3.5]nonan-2-yl}-15-oxa-8λ^6-thia-1,9,11,18,22-pentaazatetracyclo[14.4.1.13,7.110,14]tricosa-3(23),4,6,10(22),11,13-hexaene-2,8,8-trione] were, in that order, “++ (++ is 30-60%)” and less than 1000 nM.
The like results for `Cc1cccc(C)c1-c1cc2nc(n1)NS(=O)(=O)c1cccc(c1)C(=O)N1C[C@@H](CNC[C@@H]1CCC(C)C)O2` [Compound 130, (16R,20S)-12-(2,6-Dimethylphenyl)-20-(3-methylbutyl)-15-oxa-8λ^6-thia-1,9,11,18,22-pentaazatetracyclo[14.4.1.13,7.110,14]tricosa-3(23),4,6,10(22),11,13-hexaene-2,8,8-trione] were, in that order, “+++ (+++ is >600%)” and less than 1000 nM.
The corresponding values for `Cc1cccc(C)c1-c1cc2nc(n1)NS(=O)(=O)c1cccc(c1)C(=O)N1C[C@@H](CN(C)C[C@@H]1CCC(C)C)O2` [Compound 131, (16R,20S)-12-(2,6-Dimethylphenyl)-18-methyl-20-(3-methylbutyl)-15-oxa-8λ^6-thia-1,9,11,18,22-pentaazatetracyclo[14.4.1.13,7.110,14]tricosa-3(23),4,6,10(22),11,13-hexaene-2,8,8-trione] are “++ (++ is 30-60%)” and less than 1000 nM.
As for `Cc1cccc(C)c1-c1cc2nc(n1)NS(=O)(=O)c1cccc(c1)C(=O)N1C[C@@H](CNC[C@@H]1C(C)C)O2` [Compound 133, (16R,20S)-12-(2,6-Dimethylphenyl)-20-(propan-2-yl)-15-oxa-8λ^6-thia-1,9,11,18,22-pentaazatetracyclo[14.4.1.13,7.110,14]tricosa-3(23),4,6,10(22),11,13-hexaene-2,8,8-trione], the “Ent. A Max Activity (%)” value is given as “+++ (+++ is >600%)” and the EC50 is less than 1000 nM.
For `Cc1cccc(C)c1-c1cc2nc(n1)NS(=O)(=O)c1cccc(c1)C(=O)N1C[C@@H](CNC[C@@H]1CC(C)(C)C)O2` [Compound 135, (16R,20S)-12-(2,6-Dimethylphenyl)-20-(2,2-dimethylpropyl)-15-oxa-8λ^6-thia-1,9,11,18,22-pentaazatetracyclo[14.4.1.13,7.110,14]tricosa-3(23),4,6,10(22),11,13-hexaene-2,8,8-trione], the “Ent. A Max Activity (%)” value is given as “++ (++ is 30-60%)” and the EC50 is less than 1000 nM.
Consider `Cc1cccc(C)c1-c1cc2nc(n1)NS(=O)(=O)c1cccc(c1)C(=O)N1C[C@@H](CN(C)C[C@@H]1CC(C)(C)C)O2` [Compound 136, (16R,20S)-12-(2,6-Dimethylphenyl)-20-(2,2-dimethylpropyl)-18-methyl-15-oxa-8λ^6-thia-1,9,11,18,22-pentaazatetracyclo[14.4.1.13,7.110,14]tricosa-3(23),4,6,10(22),11,13-hexaene-2,8,8-trione], for which the “Ent. A Max Activity (%)” value is “+++ (+++ is >600%)” and the EC50 is less than 1000 nM.
With `Cc1cccc(C)c1-c1cc2nc(n1)NS(=O)(=O)c1cccc(c1)C(=O)N1C[C@@H](CN(C3CCCC3)C[C@H]1CC(C)C)O2` [Compound 138], the “Ent. A Max Activity (%)” value is reported as “++ (++ is 30-60%)” and the half-maximal effective concentration (EC50) is less than 1000 nM.
Consider `Cc1cccc(C)c1-c1cc2nc(n1)NS(=O)(=O)c1cccc(c1)C(=O)N1C[C@@H](CN(C(C)C)C[C@H]1CC(C)C)O2` [Compound 139], for which the “Ent. A Max Activity (%)” value was “+++ (+++ is >600%)” and the EC50 is less than 1000 nM.
In the case of `Cc1cccc(C)c1-c1cc2nc(n1)NS(=O)(=O)c1cccc(c1)C(=O)N1C[C@@H](CN(C3CC4(CCCCC4)C3)C[C@H]1CC(C)C)O2` [Compound 140], the “Ent. A Max Activity (%)” value is given as “+++ (+++ is >600%)” and the half-maximal effective concentration (EC50) was less than 1000 nM.
Regarding `Cc1cccc(C)c1-c1cc2nc(n1)NS(=O)(=O)c1cccc(c1)C(=O)N1C[C@@H](CN(C3CC4(CCCC4)C3)C[C@H]1CC(C)C)O2` [Compound 141], the “Ent. A Max Activity (%)” value is “+++ (+++ is >600%)” and the EC50 was less than 1000 nM.
